The series concerns the target T1, human PPARα (Homo sapiens, UniProt Q07869).
T1 construct: borders undisclosed
T1 sequence (Q07869 1-468): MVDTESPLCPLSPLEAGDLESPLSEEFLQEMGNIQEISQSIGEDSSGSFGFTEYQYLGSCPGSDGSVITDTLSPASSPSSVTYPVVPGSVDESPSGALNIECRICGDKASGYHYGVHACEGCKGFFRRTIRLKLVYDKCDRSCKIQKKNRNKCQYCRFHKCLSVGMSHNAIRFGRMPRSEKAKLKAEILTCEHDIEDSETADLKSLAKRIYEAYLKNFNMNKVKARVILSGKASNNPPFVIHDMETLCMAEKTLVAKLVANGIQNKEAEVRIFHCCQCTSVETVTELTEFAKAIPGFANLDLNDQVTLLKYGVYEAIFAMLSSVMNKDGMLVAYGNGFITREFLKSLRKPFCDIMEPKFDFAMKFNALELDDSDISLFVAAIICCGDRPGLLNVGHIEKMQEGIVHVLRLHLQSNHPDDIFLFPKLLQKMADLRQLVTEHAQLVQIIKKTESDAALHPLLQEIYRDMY
Put plainly: Cell-based Luciferase Assay, human PPARα agonist activity (Indigo Biosciences hPPARα IB00111). As to conditions: for activation at 0.5 µM: read-out: % PPAR-alpha AGONISM, % at 0.5 μm; for activation at 5 µM: read-out: % PPAR-alpha AGONISM, % at 5 μm; for activation at 50 µM: read-out: % PPAR-alpha AGONISM, % at 50 μm. The source says: Cell-based Luciferase Assay. […] Luminescence was quantified using a GloMax Explorer (Promega).

For the compound `O=C(O)c1cccc(NCc2ccc(-c3ccc(F)cc3)cc2)c1` [Example 1, 3-(((4′-Fluoro-[1,1′-biphenyl]-4-yl)methyl)amino)benzoic acid], the activation at 0.5 µM was 35.6%, the activation at 5 µM turned out to be 125% and the activation at 50 µM stood at 55.1%.
For `O=C(O)c1cccc(NCc2ccc(-c3ccc(C(F)(F)F)cc3)cc2)c1` [Example 2, 3-(((4′-(Trifluoromethyl)-[1,1′-biphenyl]-4-yl)methyl)amino)benzoic acid], the activation at 0.5 µM worked out at 74.7%, the activation at 5 µM worked out at 103% and the activation at 50 µM turned out to be 27.4%.
In the case of `COc1ccc(-c2ccc(CNc3cccc(C(=O)O)c3)cc2)cc1` [Example 3, 3-(((4′-Methoxy-[1,1′-biphenyl]-4-yl)methyl)amino)benzoic acid], the activation at 0.5 µM came out at 32.9%, the activation at 5 µM turned out to be 112% and the activation at 50 µM was 98.3%.
On the same counts, the results for `O=C(O)c1cccc(NCc2ccc(-c3ccc(C(F)(F)F)cc3)cc2)c1F` [Example 4, 2-Fluoro-3-(((4′-(trifluoromethyl)-[1,1′-biphenyl]-4-yl)methyl)amino)benzoic acid] are 73.7%, 120% and 20.9%.
Consider `O=C(O)c1cc(NCc2ccc(-c3ccc(C(F)(F)F)cc3)cc2)ccc1F` [Example 5, 2-Fluoro-5-(((4′-(trifluoromethyl)-[1,1′-biphenyl]-4-yl)methyl)amino)benzoic acid], for which the activation at 0.5 µM came to 67.4%, the activation at 5 µM came to 92.5% and the activation at 50 µM is 54.4%.
Turning to `O=C(O)c1ccc(F)c(NCc2ccc(-c3ccc(C(F)(F)F)cc3)cc2)c1` [Example 7, 4-Fluoro-3-(((4′-(trifluoromethyl)-[1,1′-biphenyl]-4-yl)methyl)amino)benzoic acid], the activation at 0.5 µM came to 6.6%, the activation at 5 µM was 98% and the activation at 50 µM amounted to 68.1%.
In the case of `O=C(O)c1cc(F)cc(NCc2ccc(-c3ccccc3)cc2)c1` [Example 8, 3-(([1,1′-Biphenyl]-4-ylmethyl)amino)-5-fluorobenzoic Acid], the activation at 0.5 µM was determined as 17.6%, the activation at 5 µM was 50.3% and the activation at 50 µM was 95.2%.
On to `O=C(O)c1cc(F)cc(NCc2ccc(-c3ccc(C(F)(F)F)cc3)cc2O)c1` [Example 9, 3-Fluoro-5-(((3-hydroxy-4′-(trifluoromethyl)-[1,1′-biphenyl]-4-yl)methyl)amino)benzoic Acid], for which the activation at 0.5 µM turned out to be 8%, the activation at 5 µM was determined as 49.6% and the activation at 50 µM turned out to be 46.8%.
As for `O=C(O)c1cc(F)cc(NCc2cc(Cl)c(-c3ccc(C(F)(F)F)cc3)c(Cl)c2)c1` [Example 10, 3-(((2,6-Dichloro-4′-(trifluoromethyl)-[1,1′-biphenyl]-4-yl)methyl)amino)-5-fluorobenzoic acid], the activation at 0.5 µM worked out at 0%, the activation at 5 µM came to 37.2% and the activation at 50 µM was 17.4%.
`Cc1cc(CNc2cc(F)cc(C(=O)O)c2)ccc1-c1ccc(C(F)(F)F)cc1C` [Example 12, 3-(((2,2′-Dimethyl-4′-(trifluoromethyl)-[1,1′-biphenyl]-4-yl)methyl)amino)-5-fluorobenzoic Acid]: the activation at 0.5 µM was found to be 14.1%, the activation at 5 µM came to 46.3% and the activation at 50 µM was found to be 26.5%.
Consider `Cc1cc(C(F)(F)F)ccc1-c1ccc(CNc2cc(F)cc(C(=O)O)c2)cc1` [Example 13, 3-Fluoro-5-(((2′-methyl-4′-(trifluoromethyl)-[1,1′-biphenyl]-4-yl)methyl)amino)benzoic Acid], for which the activation at 0.5 µM was determined as 38.3%, the activation at 5 µM was 47.4% and the activation at 50 µM turned out to be 27.5%.
On the same counts, the results for `N#Cc1ccc(-c2ccc(CNc3cc(F)cc(C(=O)O)c3)cc2)cc1` [Example 14, 3-(((4′-Cyano-[1,1′-biphenyl]-4-yl)methyl)amino)-5-fluorobenzoic Acid] are 7%, 58.7% and 83.8%.
On to `COc1ccc(-c2ccc(CNc3cc(F)cc(C(=O)O)c3)cc2)cc1` [Example 16, 3-Fluoro-5-(((4′-methoxy-[1,1′-biphenyl]-4-yl)methyl)amino)benzoic acid], for which the activation at 0.5 µM came to 38.2%, the activation at 5 µM was determined as 106% and the activation at 50 µM was found to be 96%.
`O=C(O)c1cc(F)cc(NCc2ccc(-c3ccc(Cl)cc3)cc2)c1` [Example 18, 3-(((4′-Chloro-[1,1′-biphenyl]-4-yl)methyl)amino)-5-fluorobenzoic acid]: the activation at 0.5 µM was 38.6%, the activation at 5 µM is 80% and the activation at 50 µM was 87.8%.
In the case of `Cc1ccc(-c2ccc(CNc3cc(F)cc(C(=O)O)c3)cc2)cc1` [Example 19, 3-Fluoro-5-(((4′-methyl-[1,1′-biphenyl]-4-yl)methyl)amino)benzoic acid], the activation at 0.5 µM worked out at 40.6%, the activation at 5 µM stood at 101% and the activation at 50 µM is 98.9%.
On the same counts, the results for `O=C(O)c1cc(F)cc(NCc2ccc(-c3ccc(C4CCCC4)cc3)cc2)c1` [Example 20, 3-(((4′-Cyclopentyl-[1,1′-biphenyl]-4-yl)methyl)amino)-5-fluorobenzoic acid] are 38.2%, 58.5% and 48%.
`O=C(O)c1cc(F)cc(NCc2ccc(-c3ccc(C(F)(F)F)cc3)cn2)c1` [Example 22, 3-Fluoro-5-(((5-(4-(trifluoromethyl)phenyl)pyridin-2-yl)methyl)amino)benzoic Acid]: the activation at 0.5 µM was determined as 22.1%, the activation at 5 µM came out at 62.2% and the activation at 50 µM was determined as 42.1%.
As for `O=C(O)c1cc(F)cc(NCc2cnc(-c3ccc(C(F)(F)F)cc3)s2)c1` [Example 24, 3-fluoro-5-(((2-(4-(trifluoromethyl)phenyl)thiazol-5-yl)methyl)amino)benzoic Acid], the activation at 0.5 µM was 15.7%, the activation at 5 µM is 83.3% and the activation at 50 µM came to 74.9%.
Regarding `O=C(O)c1cc(F)cc(NCc2csc(-c3ccc(C(F)(F)F)cc3)n2)c1` [Example 25, 3-fluoro-5-(((2-(4-(trifluoromethyl)phenyl)thiazol-4-yl)methyl)amino)benzoic Acid], the activation at 0.5 µM is 21.7%, the activation at 5 µM amounted to 88.7% and the activation at 50 µM was found to be 42.4%.
Regarding `O=C(O)c1cc(F)cc(NCc2csc(-c3ccc(F)cc3)n2)c1` [Example 26, 3-fluoro-5-(((2-(4-fluorophenyl)thiazol-4-yl)methyl)amino)benzoic Acid], the activation at 0.5 µM came to 10.6%, the activation at 5 µM amounted to 14.2% and the activation at 50 µM amounted to 50%.
On the same counts, the results for `O=C(O)c1cccc(NCc2cn(-c3ccc(C(F)(F)F)cc3)nn2)c1` [Example 27, 3-(((1-(4-(trifluoromethyl)phenyl)-1H-1,2,3-triazol-4-yl)methyl)amino)benzoic Acid] are 51.1%, 94.3% and 58.5%.
As for `O=C(O)c1cccc(NCc2cn(-c3ccc(F)cc3)nn2)c1` [Example 28, 3-(((1-(4-fluorophenyl)-1H-1,2,3-triazol-4-yl)methyl)amino)benzoic Acid], the activation at 0.5 µM is 13.1%, the activation at 5 µM was determined as 21.5% and the activation at 50 µM amounted to 58.6%.
Consider `O=C(O)c1cc(F)cc(NCc2cn(-c3ccc(C(F)(F)F)cc3)nn2)c1` [Example 29, 3-fluoro-5-(((1-(4-(trifluoromethyl)phenyl)-1H-1,2,3-triazol-4-yl)methyl)amino)benzoic Acid], for which the activation at 0.5 µM was 27%, the activation at 5 µM turned out to be 139% and the activation at 50 µM was determined as 91%.
As to `O=C(O)c1cc(F)cc(NCc2cn(-c3ccc(F)cc3)nn2)c1` [Example 30, 3-fluoro-5-(((1-(4-fluorophenyl)-1H-1,2,3-triazol-4-yl)methyl)amino)benzoic Acid], the activation at 0.5 µM came to 9.6%, the activation at 5 µM is 19.1% and the activation at 50 µM stood at 48.8%.
Regarding `CC(C)(Sc1ccc(CCN(CCCCC2CCCCC2)C(=O)NC2CCCCC2)cc1)C(=O)O` [GW7647, reference compound], under “90 nM”, the “PPAR-alpha agonism of the positive control” value is “full agonism” and the “cytotoxicity of the positive control” value is “without signs of cytotoxicity”.

Source of the values: patent US20260297016A1, “THERAPEUTIC COMPOUNDS” (REGENTS OF THE UNIVERSITY OF MINNESOTA, priority 2023, published 2026).
